# Biological target: T1, TcCaNA2 (Trypanosoma cruzi, UniProt G9B7N4)
# T1 construct: gene CaNA2; tag cleavage not mentioned; primers from CL Brener XM_816360.1
# Test: colorimetric phosphatase assay, absorbance at […] nm
# Assay type: biochemical
# Details: 80 mM p-NPP, 1 µg enzyme, 15 min at 30 °C; 1 mM MnCl2 or NiCl2 (also CaCl2, MgCl2)
# T1 sequence (G9B7N4 entry or part of it): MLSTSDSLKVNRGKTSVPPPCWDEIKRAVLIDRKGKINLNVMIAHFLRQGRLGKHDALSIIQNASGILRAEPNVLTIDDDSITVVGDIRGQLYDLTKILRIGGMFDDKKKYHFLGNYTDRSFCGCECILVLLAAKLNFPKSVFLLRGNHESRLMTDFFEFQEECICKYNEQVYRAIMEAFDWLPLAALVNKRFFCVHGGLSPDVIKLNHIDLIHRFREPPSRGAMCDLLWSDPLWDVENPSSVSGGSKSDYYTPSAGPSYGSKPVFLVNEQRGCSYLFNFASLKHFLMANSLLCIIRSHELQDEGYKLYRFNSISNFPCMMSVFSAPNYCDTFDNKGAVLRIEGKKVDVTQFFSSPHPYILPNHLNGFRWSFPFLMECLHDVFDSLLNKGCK
compound,measurement,value
O=[N+]([O-])c1ccc(OP(=O)(O)O)cc1 [p-nitrophenyl phosphate],"colorimetric phosphatase assay, absorbance at 405 nm",The recombinant protein TcCaNA2 showed enzymatic activity using p-NPP as substrate

# — PMC3907409, “A Cytoplasmic New Catalytic Subunit of Calcineurin in Trypanosoma cruzi and Its Molecular and Functional Characterization” (PLoS Neglected Tropical Diseases, 2014)
